Results published in US20240262819A1, “NOVEL COMPOUNDS HAVING INHIBITORY ACTIVITY AGAINST GLUCOSYLCERAMIDE SYNTHASE OR PHARMACEUTICALLY ACCEPTABLE SALT THEREOF, PROCESSES FOR PREPARING THE SAME, AND PHARMACEUTICAL COMPOSITIONS COMPRISING THE SAME” (YUHAN CORPORATION, priority 2021, published 2024).
Where two headings read alike, the source gives them in different places.

Tests used:
[1] = biological target: glucosylceramide synthase (GCS) (Homo sapiens (Human), UniProt Q16739); assay: Evaluation of inhibitory activities against GCS (A549 cell lysate, NBD C6-ceramide, HPLC); format: biochemical
Outline: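 GCS activity in A549 cell lysate (50 mM HEPES, pH 7.3) with NBD C6-ceramide, reacted 90 min at 37 °C. Lipids were chloroform/methanol-extracted and separated by normal-phase HPLC with fluorescence detection (ex 470/em 530 nm). GlcCer fraction of peak area was normalized between DMSO and ibiglustat, and IC50 obtained by curve fitting.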

[2] = tested on: GM1 production in Jurkat cells; assay: cells; format: cell-based
[3] = Evaluation of blood-brain barrier (BBB) permeability through oral administration; format: in vivo, mice; conditions: mice, oral, dose 30 mg/kg, 4 hr; for Kp at 4 h / concentration at 4 h: mouse, in vivo; for Kp at 4 h: read-out: Mean brain-plasma drug ratio at 4 hr
Outline: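 Mice dosed orally at 10 or 30 mg/10 ml/kg, suspended in 0.5% methyl cellulose with 0.2% Tween 80. Plasma and forebrain homogenate taken 4 hours post-dose, drug measured by LC-MS/MS; brain/plasma ratio calculated from tissue concentrations.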

[4] = read-out: Mean drug concentrations in brain tissue at 4 hr
[5] = read-out: Mean drug concentrations in plasma at 4 hr
[6] = % GCS activity, A549 cell lysate, 37° C. for 90 minutes, read-out: IC50

Chain of glucosylceramide synthase (GCS) (Q16739 whole entry): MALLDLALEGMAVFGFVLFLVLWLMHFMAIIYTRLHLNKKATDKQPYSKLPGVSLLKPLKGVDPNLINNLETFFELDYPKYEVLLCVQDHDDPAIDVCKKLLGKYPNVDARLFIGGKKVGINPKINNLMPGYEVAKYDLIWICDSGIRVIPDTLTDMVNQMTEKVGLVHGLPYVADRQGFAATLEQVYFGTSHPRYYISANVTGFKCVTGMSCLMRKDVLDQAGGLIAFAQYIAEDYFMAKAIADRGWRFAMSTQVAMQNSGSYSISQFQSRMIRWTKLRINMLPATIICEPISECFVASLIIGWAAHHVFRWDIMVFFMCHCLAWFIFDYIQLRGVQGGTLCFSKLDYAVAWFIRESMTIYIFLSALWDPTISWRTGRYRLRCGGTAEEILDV

For `CC(C)Oc1ccc(-c2ccc3c(c2)CCC(C)(C)[C@H]3NC(=O)O[C@@H]2CN3CCC2CC3)c(Cl)c1` [Example 168, (S)-quinuclidin-3-yl((R)-6-(2-chloro-4-isopropoxyphenyl)-2,2-dimethyl-1,2,3,4-tetrahydronaphthalen-1-yl)carbamate], which IC50 [1] is on record?
The IC50 was 0.188 nM.

What about the IC50 ([2]; Homo sapiens, Jurkat, 72 h) of the same compound?
The IC50 was 0.23 nM.

And the Kp at 4 h [3]?
The Kp at 4 h was 1.18.

What about the concentration at 4 h [3, 4] of the same compound?
Its concentration at 4 h is 3370 ng/g.

What about the concentration at 4 h [3, 5] of the same compound?
Its concentration at 4 h is 2890 ng/mL.

What does the source list for `CCCc1ccc(-c2cc3c(cc2F)[C@H](NC(=O)O[C@@H]2CN4CCC2CC4)C(C)(C)CC3)cc1` [Example 171, (S)-quinuclidin-3-yl((R)-7-fluoro-2,2-dimethyl-6-(4-propylphenyl)-1,2,3,4-tetrahydronaphthalen-1-yl)carbamate]?
IC50 [1]: 0.19 nM; IC50 ([2]; Homo sapiens, Jurkat, 72 h): 1.4 nM; Kp at 4 h [3]: 3.88; concentration at 4 h [3, 4]: 2900 ng/g; concentration at 4 h [3, 5]: 748 ng/mL

With `CCOc1ccc(-c2cc3c(cc2F)[C@H](NC(=O)O[C@@H]2CN4CCC2CC4)C(C)(C)CC3)cc1` [Example 176, (S)-quinuclidin-3-yl((R)-6-(4-ethoxyphenyl)-7-fluoro-2,2-dimethyl-1,2,3,4-tetrahydronaphthalen-1-yl)carbamate] as the compound, how does the IC50 [1] read?
Its IC50 is 0.24 nM.

And the IC50 ([2]; Homo sapiens, Jurkat, 72 h)?
Its IC50 is 2.1 nM.

And the Kp at 4 h [3]?
Its Kp at 4 h is 3.58.

What about the concentration at 4 h [3, 4] of the same compound?
The concentration at 4 h was 4860 ng/g.

And the concentration at 4 h [3, 5]?
The concentration at 4 h was 1360 ng/mL.

Which IC50 [1] does the source give for `COc1c(C)cc(-c2cc3c(cc2F)[C@H](NC(=O)O[C@@H]2CN4CCC2CC4)C(C)(C)CC3)cc1C` [Example 180, (S)-quinuclidin-3-yl((R)-7-fluoro-6-(4-methoxy-3,5-dimethylphenyl)-2,2-dimethyl-1,2,3,4-tetrahydronaphthalen-1-yl)carbamate] here?
The IC50 was 1.32 nM.

What about the IC50 ([2]; Homo sapiens, Jurkat, 72 h) of the same compound?
The IC50 was 8 nM.

And the Kp at 4 h [3]?
The Kp at 4 h was 1.34.

What about the concentration at 4 h [3, 4] of the same compound?
The concentration at 4 h was 1510 ng/g.

What about the concentration at 4 h [3, 5] of the same compound?
The concentration at 4 h was 1140 ng/mL.

What does the source list for `CCCOc1c(C)cc(-c2cc3c(cc2F)[C@H](NC(=O)O[C@@H]2CN4CCC2CC4)C(C)(C)CC3)cc1C` [Example 181, (S)-quinuclidin-3-yl((R)-6-(3,5-dimethyl-4-propoxyphenyl)-7-fluoro-2,2-dimethyl-1,2,3,4-tetrahydronaphthalen-1-yl)carbamate]?
IC50 [1]: 1.85 nM; IC50 ([2]; Homo sapiens, Jurkat, 72 h): 7.1 nM; Kp at 4 h [3]: 1.65; concentration at 4 h [3, 4]: 848 ng/g; concentration at 4 h [3, 5]: 510 ng/mL

Which results are given for `CC(C)Oc1ccc(-c2cc3c(cc2F)[C@H](NC(=O)O[C@@H]2CN4CCC2CC4)C(C)(C)CC3)cc1Cl` [Example 193, (S)-quinuclidin-3-yl((R)-6-(3-chloro-4-isopropoxyphenyl)-7-fluoro-2,2-dimethyl-1,2,3,4-tetrahydronaphthalen-1-yl)carbamate]?
IC50 [1]: 0.78 nM; IC50 ([2]; Homo sapiens, Jurkat, 72 h): 6.75 nM; Kp at 4 h [3]: 3.46; concentration at 4 h [3, 4]: 3020 ng/g; concentration at 4 h [3, 5]: 871 ng/mL

Which IC50 [1] does the source give for `COc1ccc(-c2cc3c(cc2F)[C@H](NC(=O)O[C@@H]2CN4CCC2CC4)C(C)(C)CC3)c(F)c1` [Example 194, (S)-quinuclidin-3-yl((R)-7-fluoro-6-(2-fluoro-4-methoxyphenyl)-2,2-dimethyl-1,2,3,4-tetrahydronaphthalen-1-yl)carbamate] here?
The IC50 was 0.41 nM.

And the IC50 ([2]; Homo sapiens, Jurkat, 72 h)?
The IC50 was 4.6 nM.

What about the Kp at 4 h [3] of the same compound?
The Kp at 4 h was 1.67.

And the concentration at 4 h [3, 4]?
The concentration at 4 h was 2100 ng/g.

And the concentration at 4 h [3, 5]?
The concentration at 4 h was 1260 ng/mL.

With `CC(C)Oc1ccc(-c2cc3c(cc2F)[C@H](NC(=O)O[C@@H]2CN4CCC2CC4)C(C)(C)CC3)cc1` [Example 197, (S)-quinuclidin-3-yl((R)-7-fluoro-6-(4-isopropoxyphenyl)-2,2-dimethyl-1,2,3,4-tetrahydronaphthalen-1-yl)carbamate] as the compound, how does the IC50 [1] read?
The IC50 was 0.2 nM.

What about the IC50 ([2]; Homo sapiens, Jurkat, 72 h) of the same compound?
Its IC50 is 0.94 nM.

What about the Kp at 4 h [3] of the same compound?
The Kp at 4 h was 3.56.

And the concentration at 4 h [3, 4]?
Its concentration at 4 h is 6690 ng/g.

And the concentration at 4 h [3, 5]?
Its concentration at 4 h is 1880 ng/mL.

What does the source list for `CC(C)Oc1ccc(-c2cc3c(cc2F)[C@H](NC(=O)O[C@@H]2CN4CCC2CC4)C(C)(C)CC3)cc1F` [Example 198, (S)-quinuclidin-3-yl((R)-7-fluoro-6-(3-fluoro-4-isopropoxyphenyl)-2,2-dimethyl-1,2,3,4-tetrahydronaphthalen-1-yl)carbamate]?
IC50 [1]: 0.34 nM; IC50 ([2]; Homo sapiens, Jurkat, 72 h): 3.2 nM; Kp at 4 h [3]: 3.46; concentration at 4 h [3, 4]: 5120 ng/g; concentration at 4 h [3, 5]: 1480 ng/mL

For “(S)-quinuclidin-3-yl((R)-6-(2-chloro-4-isopropoxyphenyl)-7-fluoro-2,2-dimethyl-1,2,3,4-tetrahydronaphthalen-1-yl) carbamate [Example 199]”, which IC50 [1, 6] is on record?
Its IC50 is 0.192 nM.

And the IC50 ([2]; read-out: IC50)?
The IC50 was 0.03 nM.

And the “Mean brain-plasma drug ratio at 4 hr” value [3]?
Its value is 1.165.

What about the “Mean drug concentrations in brain tissue at 4 hr” value [3] of the same compound?
The value was 2689 ng/g.

What about the “Mean drug concentrations in plasma at 4 hr” value [3] of the same compound?
The value was 2327.6 ng/mL.

What does the source list for “(S)-quinuclidin-3-yl((R)-7-fluoro-2,2-dimethyl-6-(4-propoxyphenyl)-1,2,3,4-tetrahydronaphthalen-1-yl) carbamate [Example 177]”?
IC50 [1, 6]: 0.25 nM; IC50 ([2]; read-out: IC50): 0.43 nM; Mean brain-plasma drug ratio at 4 hr [3]: 5.444; Mean drug concentrations in brain tissue at 4 hr [3]: 4788.9 ng/g; Mean drug concentrations in plasma at 4 hr [3]: 880.7 ng/mL
